From patent publication US8080524B2, “Agent for slowing hair loss and/or stimulating hair growth” (Centre National de la Recherche Scientifique (CNRS), priority 2005, dated 2011)
Residues, ends and D or L forms follow the SMILES beside them.

What was measured:
[1] = test system: laminin 5; test: Immunolabelling of laminin 5 in hair cuts; type: cell-based, human
Experimental: Study of the stimulating activity of tetrapeptide AcSDKP on the growth of isolated hairs maintained in a state of ex vivo survival. This study was conducted on 66 human hair explants obtained from scalp-plasty. Hairs comprised of hair follicles were isolated by micro dissection and individually placed in wells (96-well culture plate) and maintained in survival for 15 days under conventional tissue culturing conditions (37° C., 5% CO2) in Williams medium. Tetrapeptide AcSDKP added to the culture medium was tested at three concentrations: 10^−4 M, 10^−7 M and 10^−10 M. Minoxidil (2/1 diamino 6-piperidinopyrimidine 3-oxide) at a concentration of 10^−5 M was used as a positive control. On D8 and D15 of treatment, six hairs from each batch (untreated control, Minoxidil, +AcSDKP 10^−4 M, +AcSDKP 10^−7 M, +AcSDKP 10^−10 M) were removed and prepared for histological study. Three explants from each batch were fixed in ordinary Bouin and the three other hairs were frozen and stored at −80° C. In addition to measurements of the length of each hair, the general morphology of each hair was analysed and the expression of laminin 5 and collagen IV, two constituents of the basal membrane, was evaluated. Moreover, immunolabeling with anti-Ki67 antibodies (nuclear protein expressed in growing cells) was carried out of cells in mitosis in order to establish the mitotic index of follicle structures. Laminin 5, another constituent of the basal membrane, is present in the bulb around the dermal papilla as well as in the median section of hair. […] Nevertheless, expression of laminin 5 was higher on D15 with AcSDKP at 10^−7 M (FIG. 4B).

[2] = test system: cells in mitosis (Ki67) in epithelial sheath of human hair explants; test: Anti-Ki67 immunolabelling of cells in mitosis along the epithelial sheath of hairs; type: cell-based; conditions: for increase in number of cells in mitosis compared to control hair: D8 of treatment
Experimental: (§1) Study of the stimulating activity of tetrapeptide AcSDKP on the growth of isolated hairs maintained in a state of ex vivo survival. This study was conducted on 66 human hair explants obtained from scalp-plasty.
(§2) Hairs comprised of hair follicles were isolated by micro dissection and individually placed in wells (96-well culture plate) and maintained in survival for 15 days under conventional tissue culturing conditions (37° C., 5% CO2) in Williams medium.
(§3) Tetrapeptide AcSDKP added to the culture medium was tested at three concentrations: 10^−4 M, 10^−7 M and 10^−10 M. Minoxidil (2/1 diamino 6-piperidinopyrimidine 3-oxide) at a concentration of 10^−5 M was used as a positive control.
(§4) On D8 and D15 of treatment, six hairs from each batch (untreated control, Minoxidil, +AcSDKP 10^−4 M, +AcSDKP 10^−7 M, +AcSDKP 10^−10 M) were removed and prepared for histological study.
(§5) Three explants from each batch were fixed in ordinary Bouin and the three other hairs were frozen and stored at −80° C.
In addition to measurements of the length of each hair, the general morphology of each hair was analysed and the expression of laminin 5 and collagen IV, two constituents of the basal membrane, was evaluated. Moreover, immunolabeling with anti-Ki67 antibodies (nuclear protein expressed in growing cells) was carried out of cells in mitosis in order to establish the mitotic index of follicle structures.
This study was conducted on cuts of frozen hairs.

[3] = test system: human hair explants; test: Growth (length) of isolated human hairs maintained in ex vivo survival; type: cell-based
Experimental: as §1, §2, §3
Culture mediums containing the compounds to be tested were renewed every three days.
Hairs were photographed using a microscope and a CCD camera coupled to acquisition software and archiving.
Each hair was measured on D0, D3, D6, D8, D10, D13 and D15 using a LEICA IM1000 measurement module to give measurements in μm.
Each hair was photographed and its length evaluated using software giving values in μm.

[4] = test system: type IV collagen; test: Immunolabelling of type IV collagen on frozen hair cuts; type: cell-based, human
Experimental: as §1, §2, §3
On D8 and D15 of treatment, six hairs from each batch (untreated control, Minoxidil, +AcSDKP 10^−4 M, +AcSDKP 10^−7 M, +AcSDKP 10^−10 M) were removed and prepared for histological study. […]
In addition to measurements of the length of each hair, the general morphology of each hair was analysed and the expression of laminin 5 and collagen IV, two constituents of the basal membrane, was evaluated. […]
Immunolabelling of type IV collagen was carried out on frozen cuts of the control hairs and hairs treated with AcSDKP or Minoxidil in order to quantify this constituent of the basal membrane which separates the dermal compartment from the epithelial compartment.

[5] = test system: epithelial sheaths of human hair explants; test: General morphology of hair histological cuts stained with Masson Trichromium (neo-keratinocytes); type: cell-based
Experimental: as §1, §2, §3, §4, §5
Analysis of the general morphology of histological cuts stained with Masson Trichromium focusing on the area between the opening of the sebaceous glands and the hair bulb.
Hairs cultured on D0 naturally undergo changes during survival as is observed after an in vivo graft. The restructuring effect of AcSDKP was visualised through the appearance of neo-keratinocytes along the conjunctival sheath which migrate from the bulge and to a lesser extent from the bulb, two regions where stem cells are found. […] This effect leads to clear appearance of neo-keratinocytes along the length of the hair, from the epidermis to the bulb. The structure of the neo-keratinocytes formed in this way is uniform and stratified. It varies as a function of treatment time and AcSDKP concentration. The clearest activity was found on D15 of treatment with AcSDKP at 10^−10 M.

[6] = test system: keratin 19 (CK19); test: Immunolabelling of keratin 19 (CK19), epithelial stem cell marker, on frozen hair cuts; type: cell-based, human
Experimental: as §1, §2, §3, §4, §5
Immunolabeling of keratin 19 (CK19) was carried out on frozen cuts of control hairs and hairs treated with AcSDKP or Minoxidil in order to evaluate the proportion of undifferentiated primitive cells (or even stem cells) present in the external epithelial sheaths of the hair follicles. […]

CC(=O)N[C@@H](CO)C(=O)N[C@@H](CC(=O)O)C(=O)N[C@@H](CCCCN)C(=O)N1CCC[C@H]1C(=O)O [AcSDKP, CH3CO-Ser-Asp-Lys-Pro-OH] (Ac-SDKP-OH)
expression of laminin 5 ([1]; 10^−7 M, D15): higher | laminin 5 effect in the median zone of hair ([1]; 10^−10 M, D8 of treatment): considerably more marked | level of laminin 5 in hair structures ([1]; following exposure of hair to AcSDKP): significant increase | Average number of cells in mitosis per mm of hair ([2]; 10^−4 M, D8): 35.4 per mm of hair | Average number of cells in mitosis per mm of hair ([2]; 10^−4 M, D15): 23.4 per mm of hair | Average number of cells in mitosis per mm of hair ([2]; 10^−7 M, D8): 34 per mm of hair | Average number of cells in mitosis per mm of hair ([2]; 10^−7 M, D15): 21.5 per mm of hair | Average number of cells in mitosis per mm of hair ([2]; 10^−10 M, D8): 52.6 per mm of hair | increase in number of cells in mitosis compared to control hair ([2]; 10^−10 M): +300% | Average number of cells in mitosis per mm of hair ([2]; 10^−10 M, D15): 29.3 per mm of hair | number of cells in mitosis in treated hair compared to control hair ([2]; three concentrations tested (10^−4 M, 10^−7 M, 10^−10 M)): significantly increases | hair growth (length of hair) ([3]; AcSDKP 10^−10 M in culture medium, D15 of treatment): significantly stimulates hair growth | hair growth (difference in the hair shafts) ([3]; AcSDKP at higher concentrations (10^−4 M, 10^−7 M), D15): no significant difference | increase in collagen levels ([4]; 10^−10 M, D8 and D15): all the more marked | collagen IV in the bulb and median section of hair ([4]; three concentrations tested, as of D8 of treatment): very clear increase | thickness of neo-keratinocyte structure ([5]; 10^−4 M, 10^−7 M and especially 10^−10 M, D15): increasingly thicker | adhesion of epithelial sheaths to collagen ([5]; 10^−4 M, D8): more or less detached | neo-keratinocyte sites ([5]; 10^−4 M, D8): absent | adhesion of epithelium to the underlying collagen ([5]; two active concentrations (10^−7 M and 10^−10 M), D8): adheres fully | increase in CK19 levels ([6]; 10^−10 M, D8 and D15 of treatment): maximal | expression of CK19 compared to control hair and to hair treated with Minoxidil ([6]; hair kept in survival in the presence of the tetrapeptide): significantly greater

Nc1cc(N2CCCCC2)nc(N)[n+]1[O-] [Minoxidil, 2/1 diamino 6-piperidinopyrimidine 3-oxide, reference compound]
Average number of cells in mitosis per mm of hair ([2]; 10^−5 M, D8): 18.5 per mm of hair | increase in number of cells in mitosis compared to control hair ([2]; 10^−5 M): +38% | Average number of cells in mitosis per mm of hair ([2]; 10^−5 M, D15): 23.3 per mm of hair
